Reference: publication PMC12056667 (Chemical Science, 2025)
Where two headings read alike, the source gives them in different places.

How the values were obtained:
Tet(X4) [1] = biological target: T1, Tet(X4) (Escherichia coli, UniProt A0A3T0V9Y5); assay: FP competitive displacement of probe 6; format: binding; details: for IC50: IC50app, FP assay, 25 nM 6, 40 nM Tet(X4), 5 mM MgCl2, 1 μM FAD, 100 mM Tris pH 7.0, 0.01% Triton X-100; for displacement of probe 6 / competitive binding (in words): up to a maximum concentration of 100 μM
Procedure, shortened: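 FP displacement of probe 6 (added as 50 nM solution) from Tet(X4) (2× mix: 80 nM enzyme, 2 μM FAD, 10 mM MgCl2), 30 min at ambient temperature. Dose-response used 3-fold, 10-point DMSO series (top 5 or 0.5 mM stock). IC50^app came from a Hill fit of control-normalised response. Library screening used 10 μM compound, 0.1% DMSO, […].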

Tet(X4) [2] = biological target: T1, Tet(X4); assay: Absorbance activity assay (tigecycline turnover, A400); format: biochemical; details: for inhibition in the absorbance assay (in words): AZT up to 1 mM
Text: We then tested the binding of reported type 1 TDase inhibitors to Tet(X4) (Fig. 3f, ESI Fig. S17 ^†).[33,38,39] […] These compounds gave similar apparent IC50^app values, in accord with trends in IC50 measurements performed by Markley et al.[33] […] We also developed a complementary endpoint activity assay where the turnover of tigecycline by Tet(X4) in a 96-well plate was quenched by addition of 1%v/v formic acid and analysed chromatographically. The peak integrals of tigecycline and its hydroxylated degradation product at 254 nm following UPLC analysis were measured to determine turnover (Fig. 5a). As this method separates components by chromatography, it enables IC50 measurements independent of potential interference from UV-active inhibitors (Fig. 5b). […] The apparent synergy of AZT with tetracyclines against whole cells expressing Tet(X4)[40] is therefore interesting and may derive from the proposed ability of AZT to interfere with DNA synthesis in bacteria,[40,53] or other unidentified mechanisms. […] Note, however, that plumbagin and 2-MNQ are naphthoquinones, which are well-characterised redox-active pan-assay interference (PAINS) moieties.[54]
233 Absorbance Activity Assays
234 A solution containing 100 mM TAPS (pH 8.5), 2 µM FAD, 10 mM MgCl2 and 100 nM Tet(X4) was
235 dispensed into a 384 well µClear plate (Greiner Bio-One), 25 µL per well, using a microplate reagent
236 dispenser. A 3-fold, 10-point dilution series of the substrates and inhibitors was made in DMSO with
237 the highest concentration of 50 mM, unless otherwise stated, and transferred to the enzyme solution in
238 technical quadruplicate using a CyBi-Well (CyBio) liquid-handling robot (1 µL per well). On each plate,
239 a column of no enzyme negative controls and no inhibitor (DMSO only) positive controls were
240 included. The plate was briefly centrifuged (1000 rpm), then incubated (ambient temperature,15 min).
241 A solution containing 100 mM TAPS (pH 8.5), 50 µM tigecycline and 500 µM NADPH was then
242 dispensed, with 25 µL per well. The plate was briefly centrifuged (1000 rpm), then transferred to a
243 CLARIOstar Plus Microplate reader. The absorbance was monitored at wavelength […] over the
244 course of 2 hours (23 flashes / cycle, 180 s cycle time, 41 data points, 25 ° C). The initial rate was
245 calculated by measuring the rate of change of A400 during the initial linear regime. Initial rates were
246 normalised between positive and negative controls. The normalised % response was plotted as a
(§1) 247 function of log10([Inhibitor]) in molar units, and the IC50 was determined as above. […]

Tet(X4) [3] = biological target: T1, Tet(X4); assay: biochemical
Experimental: We then tested the binding of reported type 1 TDase inhibitors to Tet(X4) (Fig. 3f, ESI Fig. S17 ^†).[33,38,39] […] We also developed a complementary endpoint activity assay where the turnover of tigecycline by Tet(X4) in a 96-well plate was quenched by addition of 1%v/v formic acid and analysed chromatographically. The peak integrals of tigecycline and its hydroxylated degradation product at 254 nm following UPLC analysis were measured to determine turnover (Fig. 5a).
[…] A 3-fold, 10-point dilution series of the substrates and inhibitors was made in DMSO with a top concentration of 10 mM, unless otherwise stated, and transferred to the enzyme solution using a CyBi-Well liquid-handling robot (CyBio), 1 μL per well. On each plate, a column of no enzyme negative controls and no inhibitor (DMSO only) positive controls were included. The plate was incubated at 30 °C for 15 min. A solution containing 100 mM TAPS (pH 8.5), 40 μM tigecycline and 200 μM NADPH was then dispensed, with 49 μL per well. The plate was incubated at 30 °C for 20 min at 600 rpm. 10 μL of 10%v/v formic acid solution was then dispensed into all wells. Samples were analysed using an ACQUITY H-Class PLUS UPLC instrument (Waters) equipped with a pre-equilibrated ACQUITY BEH C18 column ([…], […], Waters) using a gradient of 1–50%v/v acetonitrile with 0.1%v/v formic acid in water with 0.1%v/v formic acid over 1.83 minutes at a flow rate of 0.5 mL min^−1. Instrument control and data processing were performed using MassLynx V4.1 software. The peaks representing tigecycline and 11a-hydroxy-tigecycline were integrated, used to calculate % conversion and then normalised between positive and negative controls. The normalised % response was plotted as a function of log10[Inhibitor], and the IC50 determined as described above.

Tet(X4) [4] = biological target: T1, Tet(X4); assay: Fluorescence polarisation binding assay of probes with purified TDase
Experimental: (§2) NADPH was not included to prevent turnover of the probe to the hydroxylated product, which would likely have a lower binding affinity than the initial probes. Screens were conducted in pH 7.0 buffer with addition of 0.01% Triton-X100 detergent in non-binding plates to minimise adsorption to the plate wells.[45]
Aliquots of TDases were thawed and serially diluted with the assay buffer (100 mM Tris, pH 7.0 with 0.01% Triton X-100) in a V-bottom 96-well plate (Greiner Bio-One). 12.5 μL of each concentration of enzyme was transferred in quadruplicate to a 384-well black, non-binding microtiter plate (Greiner Bio-One). […] 12.5 μL of this solution was added to wells containing enzyme. A negative control of 12.5 μL of the probe solution with 12.5 μL of the assay buffer was included on each plate. The plate was briefly centrifuged (1000 rpm), then incubated at ambient temperature for 30 min before measuring the FP response using a PHERAstar FS microplate reader (BMG Labtech) equipped with an FP optic module (excitation = 540 ± 20 nm, Emission = 590 ± 20 nm, 200 flashes per well). ΔmP values were calculated by subtracting the average mP of the negative controls from the mP measured for each well. To calculate Kd values, the derived ΔmP values were plotted as a function of enzyme concentration and a one-site specific binding model was applied (GraphPad Prism 9.4.1).

Tet(X5) = assay: as above; details: 25 nM probe, 5 mM MgCl2, 1 μM FAD, 100 mM Tris pH 7.0, 0.01% Triton X-100
Experimental: as §2
(§3) Aliquots of TDases were thawed and serially diluted with the assay buffer (100 mM Tris, pH 7.0 with 0.01% Triton X-100) in a V-bottom 96-well plate (Greiner Bio-One). 12.5 μL of each concentration of enzyme was transferred in quadruplicate to a 384-well black, non-binding microtiter plate (Greiner Bio-One). Aliquots of 2 mM stock of fluorescent probes 5 and 6 in DMSO were thawed and diluted to 50 nM in the assay buffer with 2 μM FAD and 10 mM MgCl2. 12.5 μL of this solution was added to wells containing enzyme. A negative control of 12.5 μL of the probe solution with 12.5 μL of the assay buffer was included on each plate. The plate was briefly centrifuged (1000 rpm), then incubated at ambient temperature for 30 min before measuring the FP response using a PHERAstar FS microplate reader (BMG Labtech) equipped with an FP optic module (excitation = 540 ± 20 nm, Emission = 590 ± 20 nm, 200 flashes per well). ΔmP values were calculated by subtracting the average mP of the negative controls from the mP measured for each well. To calculate Kd values, the derived ΔmP values were plotted as a function of enzyme concentration and a one-site specific binding model was applied (GraphPad Prism 9.4.1).

Tet(50) = biological target: T2, Tet(50) (Unknown prokaryotic organism, UniProt A0A059WYP6); assay: as above; details: for Kd: 25 nM probe, 5 mM MgCl2, 1 μM FAD, 100 mM Tris pH 7.0, 0.01% Triton X-100; for binding to Tet(50) (in words): up to a concentration of 5 μM of enzyme
T2 construct: made in house; host or cells: E. coli BL21(DE3)
Experimental: as §2, §3

Tet(X2) = biological target: T3, Tet(X2) (Bacteroides thetaiotaomicron, UniProt Q93L51); assay: as above
T3 construct: For Tet(X2), the full-length protein was prepared rather that the Δ1–10 mutant used previously for crystallographic studies; made in house; host or cells: E. coli BL21(DE3)
Experimental: as §2, §3

Tet(X7) = assay: as above; details: 25 nM probe, 5 mM MgCl2, 1 μM FAD, 100 mM Tris pH 7.0, 0.01% Triton X-100
Experimental: as §2, §3

Tet(X4) [5] = biological target: T1, Tet(X4); assay: Turnover of probe 6 (absorbance and LC-MS); format: biochemical; details: with NADPH; decrease of A400 and +16 Da species by LC-MS
Experimental: To investigate whether fluorescent probe 6 binds to the active site of the Tet(X) enzymes, we carried out docking of the probe with Tet(X4)[8] (ESI Fig. S10 ^†). […] We thus considered that probe 6 may be hydroxylated by Tet(X4) when NADPH was added to initiate turnover. We monitored turnover of probe 6 using an absorbance-readout assay with Tet(X4) adapted from previous studies.[33] A decrease in absorbance at 400 nm was observed, consistent with hydroxylation, but was not seen in a control reaction lacking Tet(X4) (ESI Fig. S11 ^†). This observation was corroborated by LC-MS analysis of the reaction (ESI Fig. S12 ^†). Appearance of an apparently mono-hydroxylated species with mass 989.348 Da (calculated mass: 989.3504 Da) was observed, +16 Da relative to the starting material (measured mass: 973.355 Da; calculated mass: 973.3555 Da).
233 Absorbance Activity Assays […]
243 CLARIOstar Plus Microplate reader. The absorbance was monitored at wavelength […] over the […]
245 calculated by measuring the rate of change of A400 during the initial linear regime. […]
as §1
252 reaction was monitored by recording the absorbance spectra between 200-800 nm at one-minute […]
261 Quenched samples were stored at -20 °C prior to analysis. Samples were analysed using a Xevo G2-XS […]

Structure (SMILES) | IC50 (Tet(X4) [1]) [µM] | displacement of probe 6 / competitive binding (in words) (Tet(X4) [1]) | IC50 (Tet(X4) [2]) [µM] | inhibition in the absorbance assay (in words) (Tet(X4) [2]) | inhibition in the UPLC assay (in words) (Tet(X4) [3]) | IC50 (Tet(X4) [3]; IC50, UPLC assay) [µM] | IC50 (Tet(X4) [3]; 20 μM tigecycline, 50 nM Tet(X4), 100 μM NADPH, 5 mM MgCl2, 1 μM FAD, 100 mM TAPS pH 8.5, read-out: IC50, UPLC assay) [µM] | inhibition in the UPLC assay (in words) (Tet(X4) [3]; AZT up to 100 μM) | Kd (Tet(X4) [4]; 25 nM probe, 5 mM MgCl2, 1 μM FAD, 100 mM Tris pH 7.0, 0.01% Triton X-100, read-out: Kd) [µM] | Kd (Tet(X5)) [µM] | Kd (Tet(50)) [µM] | binding to Tet(50) (in words) (Tet(50)) | Kd (Tet(X2)) [µM] | Kd (Tet(X7)) [µM] | Kd (Tet(X4) [4]; Kd, 25 nM probe, 5 mM MgCl2, 1 μM FAD, 100 mM Tris pH 7.0, 0.01% Triton X-100) [µM] | Kd (Tet(X4) [4]; apparent Kd, with 5 mM MgCl2) [µM] | Kd (Tet(X4) [4]; apparent Kd, without MgCl2) [µM] | turnover by Tet(X4) (in words) (Tet(X4) [5])
Cc1cn([C@H]2C[C@H](N=[N+]=[N-])[C@@H](CO)O2)c(=O)[nH]c1=O [Azidothymidine] | > 100 | minimal competitive binding | > 1000 | No inhibition | No inhibition | > 100 | – | – | – | – | – | – | – | – | – | – | – | –
CC1=CC(=O)c2c(O)cccc2C1=O [Plumbagin] | > 100 | minimal competitive binding | 49.1 ± 4.9 | moderate | – | – | 37.2 ± 8.2 | moderate | – | – | – | – | – | – | – | – | – | –
CN(C)c1ccc2c(-c3ccc(C(=O)NCC(=O)Nc4cc(N(C)C)c5c(c4O)C(=O)C4=C(O)[C@]6(O)C(=O)C(C(N)=O)=C(O)[C@H](N(C)C)[C@@H]6C[C@@H]4C5)cc3C(=O)[O-])c3ccc(=[N+](C)C)cc-3oc2c1 [Probe 5] | – | – | – | – | – | – | – | – | 0.0465 ± 0.0041 | 0.0299 ± 0.0027 | > 5 | no detectable binding | 0.0669 ± 0.0103 | 0.126 ± 0.015 | – | – | – | –
CN(C)c1ccc2c(-c3ccc(NC(=S)NCC(=O)Nc4cc(N(C)C)c5c(c4O)C(=O)C4=C(O)[C@]6(O)C(=O)C(C(N)=O)=C(O)C(N(C)C)[C@@H]6C[C@@H]4C5)cc3C(=O)[O-])c3ccc(=[N+](C)C)cc-3oc2c1 (stereo partly drawn) [Probe 6, TRITC-glycyl-minocycline] | – | – | – | – | – | – | – | – | – | 0.0106 ± 0.0013 | > 5 | no detectable binding | 0.0224 ± 0.004 | 0.0405 ± 0.0051 | 0.0173 ± 0.0019 | 0.0181 ± 0.0024 | 0.188 ± 0.033 | can be turned over
